Source: patent publication US20080045514A1 (Cytovia, Inc., priority 2006, published 2008)
pEC50: −log10 of the molar value.

Columns and labels:
Type in all cases: cell-based
[1] = system: human lymphoma cell line Raji; experiment: Caspase cascade activation (EC50), Raji; conditions: Homo sapiens, RAJI cells, read-out: caspase potency (EC50) RAJI
In short: (§1)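 Cells were resuspended at 0.65×10^6 cells/mL in medium + 10% FCS and exposed to test compound at 0.016 to 10 μM final for 48 h at 37 °C. Caspase activity was then read as fluorescence (ex 485/em 530 nm) from DEVD-R110 substrate with lysolecithin in PIPES pH 7.2, 3 h at room temperature.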

[2] = system: multi-drug resistant (MDR) human sarcoma cell line MES-SA/ADR; experiment: Inhibition of cell proliferation (GI50), MES-SA/ADR; conditions: MES-SA/ADR multi-drug resistant cells
Description: (§2) Human breast cancer cell lines T-47D, human hepatocellular carcinoma cell line SNU398, human colon carcinoma cell line HCT116, human lung cancer cell line H1299, human leukemia cell line K562, human lymphoma cell line Raji, human B cell lymphoblastoid cell line Ramos, and human Burkitt's lymphoma cell line Namalwa were grown and harvested as in Example 100. An aliquot of […] of cells (4.4×10^4 cells/mL) was added to a well of a 96-well microtiter plate containing 5 μL of a 10% DMSO in RPMI-1640 media solution containing 10 nM to 100 μM of 3-(2-chlorophenyl)-6-(3,4-methylenedioxyphenyl)-7H-[1,2,4]triazolo[3,4-b][1,3,4]thiadiazine (1 nM to 10 μM final). An aliquot of 45 μL of cells was added to a well of a 96-well microtiter plate containing 5 μL of a 10% DMSO in RPMI-1640 media solution without compound as the control sample for maximal cell proliferation (LMax). The samples were mixed by agitation and then incubated at 37° C. for 48 h in a 5% CO2-95% humidity incubator. After incubation, the samples were removed from the incubator and 25 μL of CellTiter-Glo™ reagent (Promega) was added. The samples were mixed by agitation and incubated at room temperature for 10-15 min. Plates were then read using a luminescent plate reader (Model SPECTRAfluor Plus, Tecan) to give Ltest values.
(§3) The samples were mixed by agitation and then incubated at 37° C. for 0.5 h in a 5% CO2-95% humidity incubator. After incubation, the samples were removed from the incubator and 25 μL of CellTiter-Glo™ reagent (Promega) was added. The samples were mixed by agitation and incubated at […] 10-15 min at room temperature in a 5% CO2-95% humidity incubator. Fluorescence was read as above, (LStart) defining luminescence for initial cell number used as baseline in GI50 determinations.
(§4) Calculation: GI50 (dose for 50% inhibition of cell proliferation) is the concentration where [(Ltest−LStart)/(LMax−LStart)]=0.5.
(§5) Several compounds were tested in human sarcoma cell line MES-SA and multi-drug resistant (MDR) human sarcoma cell line MES-SA/ADR, murine leukemia cell line P388 and multi-drug resistant (MDR) murine leukemia cell line P388/ADR, and the data are summarized in Table III.

[3] = system: human sarcoma cell line MES-SA; experiment: Inhibition of cell proliferation (GI50), MES-SA; conditions: MES-SA cells
Description: as §2, §3, §4, §5

[4] = system: human Burkitt's lymphoma cell line Namalwa; experiment: Caspase cascade activation (EC50), Namalwa; conditions: Homo sapiens, Burkitts lymphoma cell; Namalwa cells; caspase cascade activation; read-out: caspase potency (EC50) Namalwa
In short: as §1

[5] = system: human breast cancer cell line T-47D; experiment: Caspase cascade activation (EC50), T-47D; conditions: Homo sapiens; T47D cells; caspase cascade activation; read-out: caspase potency (EC50) T47D
In short: as §1

[6] = system: human colon carcinoma cell line HCT116; experiment: Caspase cascade activation (EC50), HCT116; conditions: Homo sapiens, HCT-116; HCT116 cells; caspase cascade activation; read-out: caspase potency (EC50) HCT116
In short: as §1

[7] = system: human B cell lymphoblastoid cell line Ramos; experiment: Caspase cascade activation (EC50), Ramos; conditions: Homo sapiens, RAMOS cells, read-out: caspase potency (EC50) RAMOS
In short: as §1

[8] = system: murine leukemia cell line P388; experiment: Inhibition of cell proliferation (GI50), P388; conditions: Mus musculus; P388 cells
Description: as §2, §3, §4, §5

[9] = system: multi-drug resistant (MDR) murine leukemia cell line P388/ADR; experiment: Inhibition of cell proliferation (GI50), P388/ADR; conditions: Mus musculus; P388/ADR multi-drug resistant cells
Description: as §2, §3, §4, §5

[10] = system: human hepatocellular carcinoma cell line SNU398; experiment: Caspase cascade activation (EC50), SNU398; conditions: Homo sapiens, SNU-398; SNU398 cells; caspase cascade activation; read-out: caspase potency (EC50) SNU398
In short: as §1

[11] = system: human colon carcinoma cell line HCT116; experiment: Inhibition of cell proliferation (GI50), HCT116; conditions: Homo sapiens; HCT 116 cells, 48 h, CellTiter-Glo
In short: (§6)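 Cells at 4.4×10^4 cells/mL were exposed to test compound (1 nM to 10 μM final) in RPMI-1640 with DMSO for 48 h at 37 °C, 5% CO2. Viability was read by CellTiter-Glo luminescence. GI50 is where (Ltest−LStart)/(LMax−LStart)=0.5, with LStart a 0.5 h baseline and LMax untreated cells.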

[12] = system: human Burkitt's lymphoma cell line Namalwa; experiment: Inhibition of cell proliferation (GI50), Namalwa; conditions: Homo sapiens, Burkitts lymphoma cell; Namalwa cells, 48 h, CellTiter-Glo
In short: as §6

[13] = system: human leukemia cell line K562; experiment: Inhibition of cell proliferation (GI50), K562; conditions: Homo sapiens; K562 cells, 48 h, CellTiter-Glo
In short: as §6

[14] = system: human lymphoma cell line Raji; experiment: Inhibition of cell proliferation (GI50), Raji; conditions: Homo sapiens; Raji cells, 48 h, CellTiter-Glo
In short: as §6

[15] = system: human B cell lymphoblastoid cell line Ramos; experiment: Inhibition of cell proliferation (GI50), Ramos; conditions: Homo sapiens; Ramos cells, 48 h, CellTiter-Glo
In short: as §6

[16] = system: human hepatocellular carcinoma cell line SNU398; experiment: Inhibition of cell proliferation (GI50), SNU398; conditions: Homo sapiens; SNU 398 cells, 48 h, CellTiter-Glo
In short: as §6

[17] = system: human breast cancer cell line T-47D; experiment: Inhibition of cell proliferation (GI50), T47D; conditions: Homo sapiens; T47D cells, 48 h, CellTiter-Glo
In short: as §6

[18] = system: human cancer cell line H1299; experiment: Caspase cascade activation (EC50), H1299; conditions: NCI-H1299, H1299 cells, read-out: caspase potency (EC50) H1299
In short: as §1

[19] = system: human lung cancer cell line H1299; experiment: Inhibition of cell proliferation (GI50), H1299; conditions: NCI-H1299, H1299 cells, 48 h, CellTiter-Glo
Description: as §2, §3, §4

## COc1ccc(C2=Nn3c(nnc3-c3cc(OC)c(OC)c(OC)c3)SC2)cc1 [Example A2, 3-(3,4,5-Trimethoxyphenyl)-6-(4-methoxyphenyl)-7H-[1,2,4]triazolo[3,4-b][1,3,4]thiadiazine]
[1]
  pEC50: 7.31
[2]
  GI50: 63 nM
[3]
  GI50: 44 nM
[4]
  pEC50: 7.44
[5]
  pEC50: 6.29
[6]
  pEC50: 6.81
[7]
  pEC50: 7.49
[8]
  GI50: 23 nM
[9]
  GI50: 25 nM
[10]
  pEC50: 7.44

## COc1ccccc1-c1nnc2n1N=C(c1ccc3c(c1)OCO3)CS2 [V, 3-(2-Methoxyphenyl)-6-(3,4-methylenedioxyphenyl)-7H-[1,2,4]triazolo[3,4-b][1,3,4]thiadiazine]
[1]
  pEC50: 7.09
[2]
  GI50: 123 nM
[3]
  GI50: 83 nM
[4]
  pEC50: 7.21
[5]
  pEC50: 7.21
[6]
  pEC50: 6.95
[7]
  pEC50: 7.12
[8]
  GI50: 31 nM
[9]
  GI50: 43 nM
[10]
  pEC50: 7.17

## COc1cc(-c2nnc3n2N=C(c2ccc4c(c2)OCO4)CS3)cc(Cl)c1OC [Example 4, 3-(3-Chloro-4,5-dimethoxyphenyl)-6-(3,4-methylenedioxyphenyl)-7H-[1,2,4]triazolo[3,4-b][1,3,4]thiadiazine]
[1]
  pEC50: 7.49
[2]
  GI50: 28 nM
[3]
  GI50: 30 nM
[4]
  pEC50: 7.44
[5]
  pEC50: 6.77
[11]
  GI50: 150 nM
[12]
  GI50: 31 nM
[13]
  GI50: 24 nM
[6]
  pEC50: 7.21
[14]
  GI50: 26 nM
[7]
  pEC50: 7.51
[8]
  GI50: 12 nM
[9]
  GI50: 16 nM
[10]
  pEC50: 7.33
[15]
  GI50: 12 nM

## COc1ccc(C2=Nn3c(nnc3-c3cccc(OC)c3)SC2)cc1 [Example X, 3-(3-methoxyphenyl)-6-(4-methoxyphenyl)-7H-[1,2,4]triazolo[3,4-b][1,3,4]thiadiazine]
[1]
  pEC50: 7.08
[2]
  GI50: 196 nM
[3]
  GI50: 418 nM
[4]
  pEC50: 7.18
[5]
  pEC50: 6.28
[16]
  GI50: 55 nM
[11]
  GI50: 157 nM
[12]
  GI50: 119 nM
[13]
  GI50: 32 nM
[6]
  pEC50: 6.92
[17]
  GI50: 400 nM
[14]
  GI50: 62 nM
[7]
  pEC50: 7.17
[8]
  GI50: 57 nM
[9]
  GI50: 77 nM
[10]
  pEC50: 7.17
[15]
  GI50: 14 nM
[18]
  pEC50: 6.17

## COc1cc(-c2nnc3n2N=C(c2ccc4c(c2)OCO4)CS3)cc(OC)c1OC [Example M1, 3-(3,4,5-Trimethoxyphenyl)-6-(3,4-methylenedioxyphenyl)-7H-[1,2,4]triazolo[3,4-b][1,3,4]thiadiazine]
[1]
  pEC50: 7.72
[2]
  GI50: 25 nM
[3]
  GI50: 17 nM
[4]
  pEC50: 7.51
[5]
  pEC50: 7.21
[16]
  GI50: 12 nM
[11]
  GI50: 25 nM
[12]
  GI50: 13 nM
[13]
  GI50: 18 nM
[6]
  pEC50: 7.40
[17]
  GI50: 22 nM
[14]
  GI50: 41 nM
[7]
  pEC50: 7.89
[8]
  GI50: 7 nM
[9]
  GI50: 10 nM
[10]
  pEC50: 7.55
[15]
  GI50: 16 nM
[19]
  GI50: 166 nM
[18]
  pEC50: 7.17

## COc1cc(OC)cc(-c2nnc3n2N=C(c2ccc4c(c2)OCO4)CS3)c1 [Example 2, 3-(3,5-Dimethoxyphenyl)-6-(3,4-methylenedioxyphenyl)-7H-[1,2,4]triazolo[3,4-b][1,3,4]thiadiazine]
[1]
  pEC50: 6.95
[2]
  GI50: 154 nM
[3]
  GI50: 59 nM
[4]
  pEC50: 6.93
[5]
  pEC50: 6.29
[11]
  GI50: 190 nM
[12]
  GI50: 20 nM
[13]
  GI50: 27 nM
[6]
  pEC50: 6.86
[14]
  GI50: 53 nM
[7]
  pEC50: 7.05
[8]
  GI50: 20 nM
[9]
  GI50: 29 nM
[10]
  pEC50: 6.85
[15]
  GI50: 11 nM
